Experimental data taken from patent US20130216666A1, “CASHEW NUT SHELL LIQUID WITH IMPROVED STABILITY” (IDEMITSU KOSAN CO., LTD., priority 2010, published 2013).
Read-outs that look alike come from different tables or passages of the source.

Legend:
[1] = Inhibition of decarboxylation reaction in feed; settings: 10% by weight in unheated CNSL, 80° C.; for Anacardic Acid 15:1 Composition (%) / Anacardic Acid 15:1 concentration / Anacardic Acid 15:2 Composition (%) / Anacardic Acid 15:2 concentration / Anacardic Acid 15:3 Composition (%) / Anacardic Acid 15:3 concentration / Cardanol 15:1 Composition (%) / Cardanol 15:1 concentration / Cardanol 15:2 Composition (%) / Cardanol 15:2 concentration / Cardanol 15:3 Composition (%) / Cardanol 15:3 concentration: silica composition 1% by weight in feed;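 note: ethyl acetate extract of test feed analysed by reversed-phase C18 HPLC with absorbance detection at 280 nm, giving component composition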
Experimental: The analysis was carried out under the conditions of a solvent composition of acetonitrile: water: acetic acid =80:20:1 (based on volume), a flow rate of 2 ml/min, a temperature of 25° C., and an absorbance of 280 nm.
Samples were taken from the beakers after 3 days and analyzed for composition by HPLC.
For HPLC analysis, soluble fractions of the test feed was extracted with ethyl acetate and then filtered and dried to concentrate it to 5 mg/ml.

[2] = Inhibition of decarboxylation reaction in unheated cashew nut shell liquid formulation (silica), phosphoric acid / phosphate; type: physicochemical; settings: 80° C.; for Anacardic Acid 15:1 Composition (%) / Anacardic Acid 15:1 concentration / Anacardic Acid 15:2 Composition (%) / Anacardic Acid 15:2 concentration / Anacardic Acid 15:3 Composition (%) / Anacardic Acid 15:3 concentration / Cardanol 15:1 Composition (%) / Cardanol 15:1 concentration / Cardanol 15:2 Composition (%) / Cardanol 15:2 concentration / Cardanol 15:3 Composition (%) / Cardanol 15:3 concentration: 10% by weight in unheated CNSL, mixed with silica
Experimental: 10 g of silica (Sipernat 22) was placed into each of beakers. […] The sodium dihydrogen phosphate was added as an aqueous solution.

[3] = 80° C.; for Anacardic Acid 15:1 Composition (%) / Anacardic Acid 15:1 concentration / Anacardic Acid 15:2 Composition (%) / Anacardic Acid 15:2 concentration / Anacardic Acid 15:3 Composition (%) / Anacardic Acid 15:3 concentration / Cardanol 15:1 concentration / Cardanol 15:2 Composition (%) / Cardanol 15:2 concentration / Cardanol 15:3 Composition (%) / Cardanol 15:3 concentration: 10% by weight in unheated CNSL

Structure (SMILES): O=P(O)(O)O [Phosphoric Acid, phosphoric acid]
- stability of the shell liquid in the feed (progress of the decarboxylation) ([1]; in feed, 3 days): stable in the feed without progress of the decarboxylation
- Anacardic Acid 15:1 Composition (%) ([1]; Day 0): 40.28%
- Anacardic Acid 15:1 concentration ([1]; Day 0): 363.92 ppm
- Anacardic Acid 15:2 Composition (%) ([1]; Day 0): 13.76%
- Anacardic Acid 15:2 concentration ([1]; Day 0): 124.28 ppm
- Anacardic Acid 15:3 Composition (%) ([1]; Day 0): 33.11%
- Anacardic Acid 15:3 concentration ([1]; Day 0): 299.13 ppm
- Cardanol 15:1 Composition (%) ([1]; Day 0): 5.39%
- Cardanol 15:1 concentration ([1]; Day 0): 48.69 ppm
- Cardanol 15:2 Composition (%) ([1]; Day 0): 2.31%
- Cardanol 15:2 concentration ([1]; Day 0): 20.83 ppm
- Cardanol 15:3 Composition (%) ([1]; Day 0): 5.15%
- Cardanol 15:3 concentration ([1]; Day 0): 46.52 ppm
- Anacardic Acid 15:1 Composition (%) ([1]; Day 3): 39.75%
- Anacardic Acid 15:1 concentration ([1]; Day 3): 345.72 ppm
- Anacardic Acid 15:2 Composition (%) ([1]; Day 3): 13.57%
- Anacardic Acid 15:2 concentration ([1]; Day 3): 118.06 ppm
- Anacardic Acid 15:3 Composition (%) ([1]; Day 3): 32.67%
- Anacardic Acid 15:3 concentration ([1]; Day 3): 284.18 ppm
- Cardanol 15:1 Composition (%) ([1]; Day 3): 5.88%
- Cardanol 15:1 concentration ([1]; Day 3): 51.13 ppm
- Cardanol 15:2 Composition (%) ([1]; Day 3): 2.51%
- Cardanol 15:2 concentration ([1]; Day 3): 21.87 ppm
- Cardanol 15:3 Composition (%) ([1]; Day 3): 5.62%
- Cardanol 15:3 concentration ([1]; Day 3): 48.85 ppm
- Anacardic Acid 15:1 Composition (%) ([2]; Day 0): 40.20%
- Anacardic Acid 15:1 concentration ([2]; Day 0): 563.78 ppm
- Anacardic Acid 15:2 Composition (%) ([2]; Day 0): 14.00%
- Anacardic Acid 15:2 concentration ([2]; Day 0): 196.40 ppm
- Anacardic Acid 15:3 Composition (%) ([2]; Day 0): 32.21%
- Anacardic Acid 15:3 concentration ([2]; Day 0): 451.72 ppm
- Cardanol 15:1 Composition (%) ([2]; Day 0): 5.74%
- Cardanol 15:1 concentration ([2]; Day 0): 80.56 ppm
- Cardanol 15:2 Composition (%) ([2]; Day 0): 2.45%
- Cardanol 15:2 concentration ([2]; Day 0): 34.39 ppm
- Cardanol 15:3 Composition (%) ([2]; Day 0): 5.39%
- Cardanol 15:3 concentration ([2]; Day 0): 75.66 ppm
- Anacardic Acid 15:1 Composition (%) ([2]; Day 3): 38.30%
- Anacardic Acid 15:1 concentration ([2]; Day 3): 496.13 ppm
- Anacardic Acid 15:2 Composition (%) ([2]; Day 3): 13.34%
- Anacardic Acid 15:2 concentration ([2]; Day 3): 172.83 ppm
- Anacardic Acid 15:3 Composition (%) ([2]; Day 3): 30.69%
- Anacardic Acid 15:3 concentration ([2]; Day 3): 397.52 ppm
- Cardanol 15:1 Composition (%) ([2]; Day 3): 7.46%
- Cardanol 15:1 concentration ([2]; Day 3): 96.68 ppm
- Cardanol 15:2 Composition (%) ([2]; Day 3): 3.19%
- Cardanol 15:2 concentration ([2]; Day 3): 41.27 ppm
- Cardanol 15:3 Composition (%) ([2]; Day 3): 7.01%
- Cardanol 15:3 concentration ([2]; Day 3): 90.79 ppm
- inhibition of the decarboxylation ([2]; formulation with silica, 10% by weight, 3 days): significant inhibition
- Anacardic Acid 15:1 Composition (%) ([3]; Day 0): 32.73%
- Anacardic Acid 15:1 concentration ([3]; Day 0): 978 ppm
- Anacardic Acid 15:2 Composition (%) ([3]; Day 0): 18.69%
- Anacardic Acid 15:2 concentration ([3]; Day 0): 559 ppm
- Anacardic Acid 15:3 Composition (%) ([3]; Day 0): 42.99%
- Anacardic Acid 15:3 concentration ([3]; Day 0): 1285 ppm
- Cardanol 15:1 concentration ([3]; Day 0): 46 ppm
- Cardanol 15:2 Composition (%) ([3]; Day 0): 1.26%
- Cardanol 15:2 concentration ([3]; Day 0): 38 ppm
- Cardanol 15:3 Composition (%) ([3]; Day 0): 2.78%
- Cardanol 15:3 concentration ([3]; Day 0): 83 ppm
- Anacardic Acid 15:1 Composition (%) ([3]; Day 3): 32.55%
- Anacardic Acid 15:1 concentration ([3]; Day 3): 968 ppm
- Anacardic Acid 15:2 Composition (%) ([3]; Day 3): 18.61%
- Anacardic Acid 15:2 concentration ([3]; Day 3): 554 ppm
- Anacardic Acid 15:3 Composition (%) ([3]; Day 3): 42.80%
- Anacardic Acid 15:3 concentration ([3]; Day 3): 1273 ppm
- Cardanol 15:1 concentration ([3]; Day 3): 46 ppm
- Cardanol 15:2 Composition (%) ([3]; Day 3): 1.41%
- Cardanol 15:2 concentration ([3]; Day 3): 42 ppm
- Cardanol 15:3 Composition (%) ([3]; Day 3): 3.10%
- Cardanol 15:3 concentration ([3]; Day 3): 92 ppm
- inhibition of the decarboxylation ([3]; 10% by weight, three days): significant inhibition
